In ChEMBL document CHEMBL1156005, “Non-nucleoside inhibitors of HCV polymerase NS5B. Part 3: synthesis and optimization studies of benzothiazine-substituted tetramic acids” (Bioorg Med Chem Lett, 2009):

Tests used:
[1] = target: Cytochrome P450 3A4 (Homo sapiens, UniProt P08684); assay: Inhibition of CYP3A4 by time dependent inactivation assay; type: ADME
[2] = target: Genome polyprotein (Hepatitis C virus genotype 1b (isolate Con1) (HCV), UniProt Q9WMX2); assay: Inhibition of […] 1b con1 NS5B polymerase assessed as [3H]UTP incorporation into acid insoluble RNA product
[3] = tested on: Hepatitis C virus; assay: Antiviral activity against HCV 1b infected in human 2209-23 cells assessed as inhibition of virus RNA replication by renilla luciferase reporter gene assay; type: functional, organism-based, Hepacivirus hominis; details: genotype 1b
[4] = Cytotoxicity against human 2209-23 cells assessed as […] by WST-1 assay; type: cell-based
[5] = tested on: Caco-2; assay: Efflux ratio of permeability from […] side in human Caco-2 cells after 21 days; type: ADME, cell-based; details: caco-2, 504 h
[6] = Metabolic stability in rat liver microsomes; type: ADME, Microsome; details: read-out: Stability
[7] = Clearance in rat at 2 mg/kg, iv; type: ADME, organism-based; set-up: dose 2 mg/kg, route intravenous; details: in vivo
[8] = tested on: Hepatitis C virus; assay: Antiviral activity against HCV 1b infected in human 2209-23 cells assessed as inhibition of virus RNA replication by renilla luciferase reporter gene assay in presence of 5% fetal bovine serum; type: functional, organism-based, Hepacivirus hominis; details: genotype 1b
[9] = tested on: Hepatitis C virus; assay: Ratio of EC50 for HCV 1a over EC50 for HCV 1b
[10] = Tmax in po dosed rat; type: ADME, organism-based; details: in vivo
[11] = Permeability by PAMPA; type: ADME; details: read-out: permeability
[12] = tested on: Hepatitis C virus; assay: Selectivity ratio, EC50 for HCV 1b in presence of 40% human serum to EC50 for HCV 1b in presence of 5% fetal bovine serum; type: functional, Hepacivirus hominis, genotype 1b
[13] = Oral bioavailability in rat; type: ADME, organism-based; details: in vivo
[14] = AUC in rat at 5 mg/kg; type: ADME, organism-based; set-up: dose 5 mg/kg; details: plasma
[15] = tested on: Hepatitis C virus; assay: Antiviral activity against HCV 1b infected in human 2209-23 cells assessed as inhibition of virus RNA replication by renilla luciferase reporter gene assay in presence of 40% human serum; type: functional, organism-based, Hepacivirus hominis; details: genotype 1b

Genome polyprotein, sequence (Q9WMX2 2420-3010 limits assumed): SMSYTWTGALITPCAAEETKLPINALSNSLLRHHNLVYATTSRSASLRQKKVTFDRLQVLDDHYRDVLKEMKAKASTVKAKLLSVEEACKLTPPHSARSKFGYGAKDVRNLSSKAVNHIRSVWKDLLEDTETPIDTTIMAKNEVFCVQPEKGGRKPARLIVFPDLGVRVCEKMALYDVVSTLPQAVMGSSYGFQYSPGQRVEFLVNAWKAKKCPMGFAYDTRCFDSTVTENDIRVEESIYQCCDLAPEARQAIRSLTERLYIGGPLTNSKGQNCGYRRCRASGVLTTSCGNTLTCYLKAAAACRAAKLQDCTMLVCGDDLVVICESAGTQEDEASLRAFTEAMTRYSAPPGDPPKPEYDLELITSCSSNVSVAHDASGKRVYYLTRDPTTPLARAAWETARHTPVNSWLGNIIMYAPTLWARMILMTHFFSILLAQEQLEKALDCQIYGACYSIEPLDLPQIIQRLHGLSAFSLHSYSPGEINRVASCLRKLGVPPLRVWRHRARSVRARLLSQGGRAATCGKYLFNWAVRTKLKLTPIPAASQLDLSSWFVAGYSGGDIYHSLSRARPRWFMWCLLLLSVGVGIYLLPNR
Cytochrome P450 3A4, sequence (P08684 whole entry): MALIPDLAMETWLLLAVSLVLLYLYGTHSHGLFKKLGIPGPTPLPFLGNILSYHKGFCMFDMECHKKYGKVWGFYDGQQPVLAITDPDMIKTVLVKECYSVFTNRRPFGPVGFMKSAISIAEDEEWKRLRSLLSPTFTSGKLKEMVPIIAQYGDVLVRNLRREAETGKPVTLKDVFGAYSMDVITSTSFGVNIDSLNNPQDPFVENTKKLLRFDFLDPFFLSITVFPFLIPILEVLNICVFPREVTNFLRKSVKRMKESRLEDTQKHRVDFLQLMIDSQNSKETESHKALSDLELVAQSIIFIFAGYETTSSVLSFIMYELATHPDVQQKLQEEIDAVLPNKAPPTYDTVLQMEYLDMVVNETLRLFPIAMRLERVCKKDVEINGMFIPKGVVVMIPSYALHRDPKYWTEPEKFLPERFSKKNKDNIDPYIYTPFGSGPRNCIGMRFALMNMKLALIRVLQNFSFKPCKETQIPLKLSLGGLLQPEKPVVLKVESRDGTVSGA

inhibition (INH) [1] | IC50 [2] | EC50 [3] | Ratio [5] | microsomal CLint [6] | clearance [7] | EC50 [8] | Tmax [10] | Papp [11] | bioavailability [13] | AUC [14] | EC50 [15] | Compound | CC50 [4] | Ratio EC50 [9] | Ratio EC50 [12]
0.4% | 1800 nM | 16500 nM | – | – | – | – | – | – | – | – | – | CC(C)(C)[C@H]1C(O)=C(C2=CS(=O)(=O)c3cc([N+](=O)[O-])ccc3N2)C(=O)N1Cc1ccc(F)cc1 | > 50000 nM | – | –
41% | 7 nM | 5 nM | 25 | 32 µL/min/mg | 101 mL/min/kg | 12 nM | 1.3 h | 1.4 ×10⁻⁶ cm/s | 22% | 189 ng·h/mL | 33 nM | CC(C)(C)[C@H]1C(O)=C(C2=CS(=O)(=O)c3cc(NS(C)(=O)=O)ccc3N2)C(=O)N1Cc1ccc(F)cc1 | > 50000 nM | 4 | 2.7
8.5% | 9 nM | 36 nM | – | – | 36 mL/min/kg | – | – | – | – | – | – | CC(C)(C)[C@H]1C(O)=C(C2=CS(=O)(=O)c3cc(NS(C)(=O)=O)cc(F)c3N2)C(=O)N1Cc1ccc(F)cc1 | > 50000 nM | 4 | –
10.9% | 1200 nM | 6850 nM | – | – | – | – | – | – | – | – | – | CC(C)(C)[C@H]1C(O)=C(C2=CS(=O)(=O)c3cc(C#N)ccc3N2)C(=O)N1Cc1ccc(F)cc1 | > 50000 nM | – | –
24.7% | 6 nM | 16 nM | – | – | – | – | – | – | – | – | – | CC(C)(C)[C@H]1C(O)=C(C2=C(C#N)S(=O)(=O)c3cc(NS(C)(=O)=O)ccc3N2)C(=O)N1Cc1ccc(F)cc1 | > 50000 nM | 4 | –
– | 5 nM | – | – | – | – | 30 nM | – | – | – | – | 660 nM | CC(C)CCN1C(=O)C(C2=CS(=O)(=O)c3cc(NS(C)(=O)=O)ccc3N2)=C(O)[C@@H]1C(C)(C)C | > 50000 nM | – | 22
39% | 3 nM | – | – | 327 µL/min/mg | 101 mL/min/kg | 12 nM | – | 1.62 ×10⁻⁶ cm/s | – | – | 122 nM | Cc1cc(CN2C(=O)C(C3=CS(=O)(=O)c4cc(NS(C)(=O)=O)ccc4N3)=C(O)[C@@H]2C(C)(C)C)ccc1F | > 50000 nM | 4 | 10.2
15.1% | 4 nM | 20 nM | – | – | – | – | – | – | – | – | – | CC(=O)C1=C(C2=C(O)[C@H](C(C)(C)C)N(Cc3ccc(F)cc3)C2=O)Nc2ccc(NS(C)(=O)=O)cc2S1(=O)=O | > 50000 nM | – | –
23% | 8 nM | – | 14 | 79 µL/min/mg | > 100 mL/min/kg | 16 nM | – | 1.8 ×10⁻⁶ cm/s | – | – | 65 nM | CC(C)(C)CCN1C(=O)C(C2=CS(=O)(=O)c3cc(NS(C)(=O)=O)ccc3N2)=C(O)[C@@H]1C(C)(C)C | > 50000 nM | – | 4.1
– | 42 nM | – | – | – | – | 201 nM | – | – | – | – | 1720 nM | CC(C)(C)[C@H]1C(O)=C(C2=CS(=O)(=O)c3cc(NS(C)(=O)=O)ccc3N2)C(=O)N1Cc1ccc(F)cn1 | > 50000 nM | – | 8.5
– | – | 24 nM | – | – | – | – | – | – | – | – | – | CCC(C)(C)[C@H]1C(O)=C(C2=CS(=O)(=O)c3cc(NS(C)(=O)=O)ccc3N2)C(=O)N1Cc1ccc(F)c(C)c1 | – | – | –
– | 13 nM | – | – | – | – | 35 nM | – | – | – | – | 226 nM | CC(C)(C)[C@H]1C(O)=C(C2=CS(=O)(=O)c3cc(NS(C)(=O)=O)ccc3N2)C(=O)N1Cc1ccc(F)cc1F | > 50000 nM | 4 | 6.5
17.8% | 11 nM | 16 nM | – | – | 5 mL/min/kg | – | – | – | – | – | – | CC(C)(C)[C@H]1C(O)=C(C2=C(C(N)=O)S(=O)(=O)c3cc(NS(C)(=O)=O)ccc3N2)C(=O)N1Cc1ccc(F)cc1 | > 50000 nM | 4 | –
19% | 8 nM | – | 11 | – | 144 mL/min/kg | 32 nM | – | 1.8 ×10⁻⁶ cm/s | – | – | 139 nM | CC(C)(C)[C@H]1C(O)=C(C2=CS(=O)(=O)c3cc(NS(C)(=O)=O)ccc3N2)C(=O)N1Cc1ccccc1 | > 50000 nM | 4 | 4.3
– | 4 nM | – | – | – | – | 28 nM | – | – | – | – | 422 nM | COc1cc(CN2C(=O)C(C3=CS(=O)(=O)c4cc(NS(C)(=O)=O)ccc4N3)=C(O)[C@@H]2C(C)(C)C)ccc1F | > 50000 nM | – | 15.1
21.9% | 10 nM | 78 nM | – | – | – | – | – | – | – | – | – | CC1=C(C2=C(O)[C@H](C(C)(C)C)N(Cc3ccc(F)cc3)C2=O)Nc2ccc(NS(C)(=O)=O)cc2S1(=O)=O | > 50000 nM | – | –
5.7% | – | – | – | – | – | – | – | – | – | – | – | CC(C)(C)[C@@H]1NC(=O)C(C2=CS(=O)(=O)c3cc(NS(C)(=O)=O)ccc3N2)=C1O | – | – | –
7.6% | 338 nM | 1870 nM | – | – | – | – | – | – | – | – | – | CC(C)(C)[C@H]1C(O)=C(C2=CS(=O)(=O)c3cc(F)ccc3N2)C(=O)N1Cc1ccc(F)cc1 | > 50000 nM | – | –
31% | 2 nM | 4 nM | – | – | – | – | – | – | – | – | – | CC(C)(C)[C@H]1C(O)=C(C2=C(Cl)S(=O)(=O)c3cc(NS(C)(=O)=O)ccc3N2)C(=O)N1Cc1ccc(F)cc1 | > 50000 nM | – | –
41% | 5 nM | – | – | 84 µL/min/mg | 86 mL/min/kg | 9 nM | – | 0.98 ×10⁻⁶ cm/s | – | – | 163 nM | CC(C)(C)[C@H]1C(O)=C(C2=CS(=O)(=O)c3cc(NS(C)(=O)=O)ccc3N2)C(=O)N1Cc1ccc(F)c(Cl)c1 | > 50000 nM | – | 18.1
20.5% | – | – | – | – | – | – | – | – | – | – | – | CC(C)(CO)[C@H]1C(O)=C(C2=CS(=O)(=O)c3cc(NS(C)(=O)=O)ccc3N2)C(=O)N1Cc1ccc(F)cc1 | – | – | –
